According to patent US20250212875A1, “PESTICIDAL AND HERBICIDAL COMPOUNDS AND METHODS OF USE THEREOF” (AG PLENUS LTD, priority 2022, published 2025):

Columns and labels:
Assay type in all cases: in vivo
Arabidopsis thaliana [1] = assay: HTPS post-emergence on miniature dicot model plants; conditions: green area (RGB), maximal concentration 1.5 kg/ha, read-out: Max inhibition (%)
Protocol: Arabidopsis thaliana seeds were sown in 96 well plates filled with irrigated Sweet sand (10%>clay) that is washed from salts and minerals using tap water. 5-10 seeds were sown in the center of each well. 7-8 days post sowing, at 2 true leaves stage, thinning out was performed to ensure that compound application is done on a single plant per well. The plates were placed in a controlled greenhouse in a random order inside a bath which allows flooding irrigation with tap water supplemented with a fertilizer. Applied compounds were dissolved into a final solution of 50% acetone, 49.9% DDW, 0.1% tween-20. A 96 well plate was used as a stock plate for preparing application solutions for 8 repeats. Each row contained different concentrations per chemical. Maximal concentration for application was 1.5 kg/ha and dilution factor is 2.5. Chemical application was performed one day after thinning out in a chemical hood. 5 μL applied on first two true leaves in each well using 12 channel pipettes. Data collection: RGB (red, green, blue) data for green area per well was documented using camera. Data is collected at a few time points during the experiment: one day after thinning and before chemical application, two-, six- or nine-days post application. During the last two documentations, visual phenotyping was performed. Data analysis: Given RGB results and visual phenotype scores, a student t-test conducted to compare between treatment and control performance for continuous data (RGB) and Fisher exact test to analyze the non-continuous data (phenotypic scores). Dose-Response curves are generated for each treatment to infer ED50 and max. inhibition parameters, using treatment's log concentration range as the […] variable and normalized green area. Plate imaging performed at 11 and 18 DAA. RGB data for green area per well was documented and used to extract % inhibition. Dose-Response curves were built for each treatment to infer EC50, EC75 and EC90 parameters, using treatment's log concentration range as the independent variable and normalized green area as the dependent variable. Treatments were compared to controls performance given RGB results and using student's t-test (p-val≤0.05). Compounds 101, 110, 112, 119, 124, 125, 146, 154, 157, 172, 170, 169, 112, and 166 were applied in either or both pre- and post-emergence mode to either or both monocot and dicot model plants, following the methods described above. The compounds were applied as a gradient of concentrations as listed above, from which the ED50 was calculated.

Arabidopsis thaliana [2] = assay: HTPS pre-emergence on dicot model plants; conditions: green area (RGB)
Protocol: A 96 well plate was used as a stock plate for preparing application solutions for 8 repeats. Each row contained different concentrations per chemical. Maximal concentration for application was 1.5 kg/ha and dilution factor is 2.5. Chemical application was performed one day after thinning out in a chemical hood. 5 μL applied on first two true leaves in each well using 12 channel pipettes. Data collection: RGB (red, green, blue) data for green area per well was documented using camera. Data is collected at a few time points during the experiment: one day after thinning and before chemical application, two-, six- or nine-days post application. During the last two documentations, visual phenotyping was performed. Data analysis: Given RGB results and visual phenotype scores, a student t-test conducted to compare between treatment and control performance for continuous data (RGB) and Fisher exact test to analyze the non-continuous data (phenotypic scores). […]
(§1) Compounds 101, 110, 112, 119, 124, 125, 146, 154, 157, 172, 170, 169, 112, and 166 were applied in either or both pre- and post-emergence mode to either or both monocot and dicot model plants, following the methods described above. The compounds were applied as a gradient of concentrations as listed above, from which the ED50 was calculated.

Eragrostis teff = assay: HTPS pre-emergence on monocot model plants; conditions: green area (RGB)
Protocol: A 96 well plate was used as a stock plate for preparing application solutions for 8 repeats. Each row contained different concentrations per chemical. Maximal concentration for application was 1.5 kg/ha and dilution factor is 2.5. Chemical application was performed one day after thinning out in a chemical hood. 5 μL applied on first two true leaves in each well using 12 channel pipettes. Data collection: RGB (red, green, blue) data for green area per well was documented using camera. Data is collected at a few time points during the experiment: one day after thinning and before chemical application, two-, six- or nine-days post application. During the last two documentations, visual phenotyping was performed. Data analysis: Given RGB results and visual phenotype scores, a student t-test conducted to compare between treatment and control performance for continuous data (RGB) and Fisher exact test to analyze the non-continuous data (phenotypic scores). Dose-Response curves are generated for each treatment to infer ED50 and max. inhibition parameters, using treatment's log concentration range as the […] variable and normalized green area.
These experiments are conducted similarly except that either Arabidopsis thaliana or Eragrostis teff seeds were sowed (5-10 or 5-7, respectively), plant thinning out was not performed, compound dissolved into a final solution of 50% acetone, 49.9% DDW, compound application was done at 30 μL volume per well directly on sowed soil before plant emergence and data was collected 10 or 7 days after chemical application on dicot or monocot plants, respectively.
Plate imaging performed at 11 and 18 DAA. RGB data for green area per well was documented and used to extract % inhibition. […]
as §1

NC1(C/C=C/CC(=O)O)CC1 [Compound 112]
inhibition at up to 1500 g/ha (Arabidopsis thaliana [1]): 87.5%
Max inhibition (%) (Arabidopsis thaliana [2]): 100%
Max inhibition (%) (Eragrostis teff): 51%
